Each block holds one compound with its values, some of them ahead of it.
Experiments:
[1] = system: parental and resistant cell lines; test: Preliminary cytotoxicity of reversal compounds treated alone; format: cell-based; settings: 5 μM concentration
human P-gp [2] = target: T1, human P-gp (Homo sapiens, UniProt P08183); settings: read-out: [125I]-IAAP labeling IC50; inhibition of photolabeling of P-gp; cited from earlier work
[3] = system: SW620/Ad300 drug-resistant cell lines; settings: cited from earlier work
[4] = system: SW620/Ad300 drug-resistant cell lines; settings: 10 μM in vitro; cited from earlier work
tumor = settings: mice; no apparent side-effects; cited from earlier work
HEK 293-pcDNA 3.1 cells = test: MDR reversal; format: cell-based; settings: 72 h, read-out: IC50 ± SD of paclitaxel
MDR reversal = format: cell-based; settings: human
human P-gp [5] = target: T1, human P-gp; settings: 20 min, 2.5 µM, pH 6.8
CYP3A4 = CYP3A4 (Homo sapiens, UniProt P08684); test: In vitro CYP3A4 enzyme inhibition assay; format: in vitro ADME; settings: 25 μM
Sequence of CYP3A4 (P08684 whole entry): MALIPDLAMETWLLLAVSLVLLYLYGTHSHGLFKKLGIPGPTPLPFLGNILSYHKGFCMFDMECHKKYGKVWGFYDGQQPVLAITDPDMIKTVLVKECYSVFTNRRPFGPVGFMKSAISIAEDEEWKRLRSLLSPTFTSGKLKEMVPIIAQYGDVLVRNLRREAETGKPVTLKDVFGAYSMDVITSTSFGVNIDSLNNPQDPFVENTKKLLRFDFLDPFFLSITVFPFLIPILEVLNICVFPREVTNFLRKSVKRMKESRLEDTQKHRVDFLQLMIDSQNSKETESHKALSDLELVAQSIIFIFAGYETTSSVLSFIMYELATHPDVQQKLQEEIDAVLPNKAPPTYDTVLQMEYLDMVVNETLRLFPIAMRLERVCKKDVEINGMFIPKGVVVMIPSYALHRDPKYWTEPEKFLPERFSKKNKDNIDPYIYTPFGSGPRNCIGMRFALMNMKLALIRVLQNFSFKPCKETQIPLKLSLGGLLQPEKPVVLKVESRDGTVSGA

T1 sequence (P08183 whole entry): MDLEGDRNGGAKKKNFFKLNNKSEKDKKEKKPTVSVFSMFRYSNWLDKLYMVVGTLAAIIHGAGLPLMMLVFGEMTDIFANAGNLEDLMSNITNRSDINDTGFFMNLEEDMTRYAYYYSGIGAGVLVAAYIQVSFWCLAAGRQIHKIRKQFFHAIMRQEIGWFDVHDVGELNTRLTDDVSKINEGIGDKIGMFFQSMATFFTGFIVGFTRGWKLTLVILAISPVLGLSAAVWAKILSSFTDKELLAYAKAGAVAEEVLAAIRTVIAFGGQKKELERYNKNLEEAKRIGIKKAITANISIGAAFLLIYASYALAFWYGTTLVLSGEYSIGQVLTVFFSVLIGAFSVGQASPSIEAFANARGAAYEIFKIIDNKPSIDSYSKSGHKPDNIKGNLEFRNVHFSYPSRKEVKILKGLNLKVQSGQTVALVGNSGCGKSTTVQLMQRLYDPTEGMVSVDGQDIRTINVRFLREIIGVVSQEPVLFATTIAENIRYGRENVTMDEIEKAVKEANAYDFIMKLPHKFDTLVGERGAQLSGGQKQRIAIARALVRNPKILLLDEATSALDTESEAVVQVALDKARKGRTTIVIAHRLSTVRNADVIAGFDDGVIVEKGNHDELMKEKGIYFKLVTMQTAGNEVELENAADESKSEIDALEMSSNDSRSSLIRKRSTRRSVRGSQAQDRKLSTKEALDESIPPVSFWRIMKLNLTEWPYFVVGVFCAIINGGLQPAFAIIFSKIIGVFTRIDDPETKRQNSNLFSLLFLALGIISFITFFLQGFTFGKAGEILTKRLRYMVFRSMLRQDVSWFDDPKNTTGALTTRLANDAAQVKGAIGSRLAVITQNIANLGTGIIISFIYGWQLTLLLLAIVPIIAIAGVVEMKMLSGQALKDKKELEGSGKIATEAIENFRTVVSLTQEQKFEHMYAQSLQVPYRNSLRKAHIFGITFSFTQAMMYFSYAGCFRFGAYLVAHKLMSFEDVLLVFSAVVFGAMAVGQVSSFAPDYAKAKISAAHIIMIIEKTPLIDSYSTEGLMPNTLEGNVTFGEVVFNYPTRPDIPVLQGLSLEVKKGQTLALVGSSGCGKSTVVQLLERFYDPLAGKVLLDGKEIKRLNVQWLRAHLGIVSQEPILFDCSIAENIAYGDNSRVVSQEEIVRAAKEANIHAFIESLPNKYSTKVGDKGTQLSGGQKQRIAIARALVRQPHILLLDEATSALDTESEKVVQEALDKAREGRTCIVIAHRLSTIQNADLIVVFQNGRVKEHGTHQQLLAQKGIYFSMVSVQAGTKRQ

SMILES: O[C@@H](COc1cccc2ncccc12)CN1CCN([C@@H]2c3ccccc3[C@@H]3[C@H](c4ccccc42)C3(F)F)CC1 [Zosuquidar, zosuquidar]
cytotoxicity [1]: cytotoxic

SMILES: COc1cc(C(=O)N[C@H](c2nc(C(=O)Nc3ccccc3C(=O)c3ccccc3)cs2)C(C)C)cc(OC)c1OC [Compound 1, (S)-N-(2-benzoylphenyl)-2-(2-methyl-1-(3,4,5-trimethoxybenzamido)propyl)thiazole-4-carboxamide]
IC50 (human P-gp [2]): 720 nM
intracellular paclitaxel concentration [3]: increased intracellular paclitaxel concentration
reversal of resistance to paclitaxel, doxorubicin and vincristine [4]: significant reversal of resistance
tumor volume and tumor weight (tumor): reduced tumor volume and tumor weight

SMILES: COc1cc(C(=O)N[C@H](c2nc(C(=O)NC3CCNCC3)cs2)C(C)C)cc(OC)c1OC [Compound 42, (S)-2-(2-Methyl-1-(3,4,5-trimethoxybenzamido)propyl)-N-(piperidin-4-yl)thiazole-4-carboxamide]
ATPase activity % Stimulation (human P-gp [5]): 15%

Further lines, with some results ahead:

IC50 at 72 h (MDR reversal): 2050 ± 87 nM
SMILES: CC(=O)O[C@H]1C(=O)[C@@]2(C)[C@H]([C@H](OC(=O)c3ccccc3)[C@]3(O)C[C@H](OC(=O)[C@H](O)[C@@H](NC(=O)c4ccccc4)c4ccccc4)C(C)=C1C3(C)C)[C@]1(OC(C)=O)CO[C@@H]1C[C@@H]2O [Paclitaxel, paclitaxel]
IC50 (HEK 293-pcDNA 3.1 cells): 71 ± 15 nM

ATPase activity % Stimulation (human P-gp [5]): 21%
SMILES: COc1cc(C(=O)N[C@H](c2nc(C(=O)NCC3CCC(F)(F)CC3)cs2)C(C)C)cc(OC)c1OC [Compound 63, (S)-N-((4,4-Difluorocyclohexyl)methyl)-2-(2-methyl-1-(3,4,5-trimethoxybenzamido)propyl)thiazole-4-carboxamide]

CYP3A4 Inhibition (%) (CYP3A4): did not inhibit
SMILES: COc1cc(C(=O)NC(Cc2ccccc2)c2nc(C(=O)NC3CCC(F)(F)CC3)cs2)cc(OC)c1OC (stereo not shown) [Compound 109, N-(4,4-Difluorocyclohexyl)-2-(2-phenyl-1-(3,4,5-trimethoxybenzamido)ethyl)thiazole-4-carboxamide]

— paper PMC5805629 (Journal of medicinal chemistry, 2018)
